Measurements from patent US4975374A (priority 1987, dated 1990).

Legend:
[1] = molecular target: T1, pea leaf glutamine synthetase (Pisum sativum, UniProt P08281); conditions: mixed competitive inhibitor; cited from earlier work
T1 sequence (P08281 50-430): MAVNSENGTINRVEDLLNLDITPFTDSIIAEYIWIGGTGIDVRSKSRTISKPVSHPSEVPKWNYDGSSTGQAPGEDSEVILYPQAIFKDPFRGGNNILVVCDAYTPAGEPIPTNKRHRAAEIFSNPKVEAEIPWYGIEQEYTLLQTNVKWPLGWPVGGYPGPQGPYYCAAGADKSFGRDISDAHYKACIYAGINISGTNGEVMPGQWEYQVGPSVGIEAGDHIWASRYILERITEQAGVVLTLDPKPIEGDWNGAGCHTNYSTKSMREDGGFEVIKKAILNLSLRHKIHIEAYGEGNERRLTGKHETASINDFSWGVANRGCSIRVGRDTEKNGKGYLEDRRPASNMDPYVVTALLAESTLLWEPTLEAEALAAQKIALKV

E. coli transformants = assay: Fragment exchange: transformants selected for PPT resistance; assay type: cell-based
Source text: (§1) Tables I and II show the results obtained.

wild-type GS (pCGS3) = molecular target: T2, wild-type GS (pCGS3) (Medicago sativa, UniProt P04078); assay: Inhibition of GS activity by PPT, lysate of E. coli FDB213 containing pCGS3; assay type: biochemical, alfalfa; conditions: read-out: Relative GS Enzyme Activity
T2 construct: made in house; host or cells: E. coli FDB213 (glnA deletion), clarified lysate
T2 sequence (P04078 1-356): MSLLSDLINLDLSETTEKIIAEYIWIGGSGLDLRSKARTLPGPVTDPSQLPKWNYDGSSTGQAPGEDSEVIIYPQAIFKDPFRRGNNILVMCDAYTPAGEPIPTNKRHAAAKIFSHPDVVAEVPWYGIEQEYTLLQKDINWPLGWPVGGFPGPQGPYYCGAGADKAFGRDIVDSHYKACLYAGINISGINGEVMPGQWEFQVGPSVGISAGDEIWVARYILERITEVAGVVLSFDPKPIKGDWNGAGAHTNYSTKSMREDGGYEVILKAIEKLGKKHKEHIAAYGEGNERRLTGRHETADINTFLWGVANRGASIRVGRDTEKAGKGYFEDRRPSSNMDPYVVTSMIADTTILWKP
Method: (§2) The cells were collected by centrifugation at 5,000 r.p.m. (5° C.) for 5 min, resuspended in 1.0 ml 10mM Tris-HCl, pH 7.5, 1 mM EDTA, 5 mM beta-mercaptoethanol, and lysed by sonication.

[2] = molecular target: T3, PPT resistant mutant GS (ser 245) (pCGS3-SER245) (Medicago sativa, UniProt P04078, G245S); assay: Inhibition of GS activity by PPT, lysate of E. coli FDB213 containing pCGS3-Ser245; assay type: biochemical, alfalfa; conditions: read-out: Relative GS Enzyme Activity
T3 construct: made in house; host or cells: E. coli FDB213 (glnA deletion), clarified lysate
T3 sequence (P04078 whole entry G245S): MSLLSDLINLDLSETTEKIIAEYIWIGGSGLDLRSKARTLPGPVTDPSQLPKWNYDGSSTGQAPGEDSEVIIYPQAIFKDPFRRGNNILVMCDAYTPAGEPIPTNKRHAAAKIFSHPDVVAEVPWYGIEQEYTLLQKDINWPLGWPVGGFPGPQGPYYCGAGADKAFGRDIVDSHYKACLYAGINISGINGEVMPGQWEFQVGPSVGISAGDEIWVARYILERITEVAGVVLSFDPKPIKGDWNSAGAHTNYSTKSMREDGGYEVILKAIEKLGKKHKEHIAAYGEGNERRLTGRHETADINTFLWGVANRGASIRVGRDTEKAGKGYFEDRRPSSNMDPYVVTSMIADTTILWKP
Method: as §2

[3] = molecular target: T4, PPT resistant mutant GS (lys 332) (pCGS3-LYS332) (Medicago sativa, UniProt P04078, R332K); assay: biochemical; set-up: species or system alfalfa; conditions: read-out: Relative GS Enzyme Activity
T4 construct: made in house; host or cells: E. coli FDB213 (glnA deletion), clarified lysate
T4 sequence (P04078 whole entry R332K): as the sequence (P04078 whole entry G245S) above, with S245G, R332K counted along it
Method: as §2

E. coli containing pCGS3 = assay: Replating on M9 with PPT, plasmid pCGS3; assay type: cell-based
Source text: as §1

Q: With `CS(=N)(=O)CCC(N)C(=O)O` (centres unmarked) [MSO, methione sulfoximine] as the molecule, how does the Ki [1] read?
A: 160 µM

Q: With `CP(=O)(O)CC[C@H](N)C(=O)O` [L-PPT, L-phosphinothricin] as the molecule, how does the “NUMBER OF COLONIES M9 AMP + 3 mM L-PPT” value (E. coli transformants; 9: CCC pCGS3) read?
A: 100

Q: What about the “NUMBER OF COLONIES M9 AMP + 3 mM L-PPT” value (E. coli transformants; 10: CCC pCGS3 PPT^r) of the same molecule?
A: > 1000

Q: What about the “NUMBER OF COLONIES M9 AMP + 3 mM L-PPT” value (E. coli transformants; ligation 2: insert PPT^r SalI-NcoI, vector SalI-NcoI) of the same molecule?
A: 8

Q: And the “NUMBER OF COLONIES M9 AMP + 3 mM L-PPT” value (E. coli transformants; ligation 4: insert PPT^r NcoI-EcoRI, vector NcoI-EcoRI)?
A: 6

Q: What about the “NUMBER OF COLONIES M9 AMP + 3 mM L-PPT” value (E. coli transformants; ligation 6: insert PPT^r EcoRI-HindIII, vector EcoRI-HindIII) of the same molecule?
A: 300

Q: What about the “NUMBER OF COLONIES M9 AMP + 3 mM L-PPT” value (E. coli transformants; ligation 8: insert PPT^r HindIII-BamHI, vector HindIII-BamHI) of the same molecule?
A: 2

Q: With `CP(=O)(O)CC[C@H](N)C(=O)O` [PPT, phosphinothricin] as the molecule, how does the remaining activity at 4 µM (wild-type GS (pCGS3); 4 uM PPT) read?
A: 102%

Q: And the remaining activity at 25 µM (wild-type GS (pCGS3); 25 uM PPT)?
A: 95.7%

Q: What about the remaining activity at 62.5 µM (wild-type GS (pCGS3); 62.5 uM PPT) of the same molecule?
A: 84%

Q: What about the remaining activity at 125 µM (wild-type GS (pCGS3); 125 uM PPT) of the same molecule?
A: 68%

Q: What about the remaining activity at 250 µM (wild-type GS (pCGS3); 250 uM PPT) of the same molecule?
A: 42.7%

Q: What about the remaining activity at 2000 µM (wild-type GS (pCGS3); 2 mM PPT) of the same molecule?
A: 15%

Q: And the remaining activity at 20000 µM (wild-type GS (pCGS3); 20 mM PPT)?
A: 4.3%

Q: What about the remaining activity at 4 µM [2] of the same molecule?
A: 103%

Q: And the remaining activity at 25 µM [2]?
A: 103%

Q: And the remaining activity at 62.5 µM [2]?
A: 97.3%

Q: What about the remaining activity at 125 µM [2] of the same molecule?
A: 91.4%

Q: What about the remaining activity at 250 µM [2] of the same molecule?
A: 80.6%

Q: And the remaining activity at 2000 µM [2]?
A: 30.7%

Q: What about the remaining activity at 20000 µM [2] of the same molecule?
A: 5.3%

Q: And the remaining activity at 4 µM [3]?
A: 103%

Q: And the remaining activity at 25 µM [3]?
A: 103%

Q: And the remaining activity at 62.5 µM [3]?
A: 103%

Q: What about the remaining activity at 125 µM [3] of the same molecule?
A: 100%

Q: What about the remaining activity at 250 µM [3] of the same molecule?
A: 98.5%

Q: And the remaining activity at 2000 µM [3]?
A: 78.2%

Q: And the remaining activity at 20000 µM [3]?
A: 23.8%

Q: What about the growth on replating (E. coli containing pCGS3; M9/6 mM PPT, from LB) of the same molecule?
A: 0

Q: What about the growth on replating (E. coli containing pCGS3; M9/6 mM PPT, from M9) of the same molecule?
A: 0

Q: And the growth on replating (E. coli containing pCGS3; M9/12 mM PPT, from LB)?
A: 0

Q: And the growth on replating (E. coli containing pCGS3; M9/12 mM PPT, from M9)?
A: 0
